Measurements from US12275731B2, “Azaindole inhibitors of wild-type and mutant forms of LRRK2” (DANA-FARBER CANCER INSTITUTE, INC., priority 2018, dated 2025).

Legend:
Assay in all cases: KinomeScan profiling
Type in all cases: binding
YANK1 = YANK1 (Homo sapiens, UniProt Q8WU08); settings: YANK1, 1 μM; read-out: % control
Procedure, shortened: (§1)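 Test agents were profiled at a single concentration of 1 μM (DMSO vehicle) on a near-complete set of 468 kinases. Signal is reported relative to vehicle (100%) and a fully displacing control (0%).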

PIK4CB = target: T1, PIK4CB (Homo sapiens, UniProt Q9UBF8); settings: read-out: % control
T1 construct: purchased KinomeScan® (panel service)
Procedure, shortened: as §1

BMPR2 = target: T2, BMPR2 (Homo sapiens, UniProt Q13873); settings: BMPR2, 1 μM; read-out: % control
T2 construct: purchased KinomeScan®
T2 sequence (Q13873 27-1038): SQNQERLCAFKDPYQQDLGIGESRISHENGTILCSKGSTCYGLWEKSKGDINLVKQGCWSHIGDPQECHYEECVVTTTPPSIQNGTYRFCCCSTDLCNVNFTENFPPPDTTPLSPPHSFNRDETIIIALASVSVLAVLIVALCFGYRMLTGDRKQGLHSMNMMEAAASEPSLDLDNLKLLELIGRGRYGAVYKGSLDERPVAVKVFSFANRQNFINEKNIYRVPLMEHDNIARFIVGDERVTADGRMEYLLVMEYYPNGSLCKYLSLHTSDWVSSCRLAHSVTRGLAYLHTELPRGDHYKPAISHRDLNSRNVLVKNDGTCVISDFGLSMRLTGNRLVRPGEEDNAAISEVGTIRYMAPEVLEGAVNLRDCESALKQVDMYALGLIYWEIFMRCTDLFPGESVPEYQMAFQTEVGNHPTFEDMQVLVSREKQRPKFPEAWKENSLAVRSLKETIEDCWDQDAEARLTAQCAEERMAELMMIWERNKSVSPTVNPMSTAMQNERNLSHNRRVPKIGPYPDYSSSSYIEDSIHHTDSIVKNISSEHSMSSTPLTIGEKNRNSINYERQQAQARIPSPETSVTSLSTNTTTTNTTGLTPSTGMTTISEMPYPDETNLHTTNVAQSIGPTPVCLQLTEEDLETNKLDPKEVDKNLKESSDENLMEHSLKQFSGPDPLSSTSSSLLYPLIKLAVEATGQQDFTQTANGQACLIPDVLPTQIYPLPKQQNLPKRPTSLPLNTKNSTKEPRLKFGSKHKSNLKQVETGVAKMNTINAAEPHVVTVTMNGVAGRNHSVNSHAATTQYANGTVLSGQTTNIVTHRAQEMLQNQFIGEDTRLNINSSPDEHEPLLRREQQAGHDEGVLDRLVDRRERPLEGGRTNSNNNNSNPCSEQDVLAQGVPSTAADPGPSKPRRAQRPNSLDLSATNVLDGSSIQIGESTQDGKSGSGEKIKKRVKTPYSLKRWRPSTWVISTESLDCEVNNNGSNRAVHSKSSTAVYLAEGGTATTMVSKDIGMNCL
Procedure, shortened: as §1

BLK = target: T3, BLK (Homo sapiens, UniProt P51451); settings: read-out: % control
T3 construct: purchased KinomeScan®
Procedure, shortened: as §1

[1] = target: T4, ABL1(Q252H)-phosphorylated (Homo sapiens, UniProt P00519, Q252H); settings: read-out: % control
T4 construct: purchased KinomeScan®
Procedure, shortened: as §1

[2] = target: T5, ABL1(Y253F)-phosphorylated (Homo sapiens, UniProt P00519, Y253F); settings: read-out: % control
T5 construct: purchased KinomeScan®
Procedure, shortened: as §1

MKK7 = target: T6, MKK7 (Homo sapiens, UniProt O14733); settings: MKK7, 1 μM; read-out: % control
T6 sequence (O14733 1-419): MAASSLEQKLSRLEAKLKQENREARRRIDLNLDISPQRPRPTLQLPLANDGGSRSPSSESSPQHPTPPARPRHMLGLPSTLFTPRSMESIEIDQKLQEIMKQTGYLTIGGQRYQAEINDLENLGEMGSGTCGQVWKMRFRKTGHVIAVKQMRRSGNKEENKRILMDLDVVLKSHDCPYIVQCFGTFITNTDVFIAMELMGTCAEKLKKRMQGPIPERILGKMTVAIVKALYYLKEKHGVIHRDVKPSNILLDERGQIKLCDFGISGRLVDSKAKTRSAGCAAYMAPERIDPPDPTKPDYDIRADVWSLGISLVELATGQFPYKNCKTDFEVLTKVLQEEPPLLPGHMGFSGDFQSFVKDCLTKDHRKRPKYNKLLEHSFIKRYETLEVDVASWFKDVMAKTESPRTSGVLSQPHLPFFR
Procedure, shortened: as §1

WNK4 = WNK4 (Homo sapiens, UniProt Q96J92); settings: WNK4, 1 μM; read-out: % control
Procedure, shortened: as §1

WNK4, sequence (Q96J92 whole entry): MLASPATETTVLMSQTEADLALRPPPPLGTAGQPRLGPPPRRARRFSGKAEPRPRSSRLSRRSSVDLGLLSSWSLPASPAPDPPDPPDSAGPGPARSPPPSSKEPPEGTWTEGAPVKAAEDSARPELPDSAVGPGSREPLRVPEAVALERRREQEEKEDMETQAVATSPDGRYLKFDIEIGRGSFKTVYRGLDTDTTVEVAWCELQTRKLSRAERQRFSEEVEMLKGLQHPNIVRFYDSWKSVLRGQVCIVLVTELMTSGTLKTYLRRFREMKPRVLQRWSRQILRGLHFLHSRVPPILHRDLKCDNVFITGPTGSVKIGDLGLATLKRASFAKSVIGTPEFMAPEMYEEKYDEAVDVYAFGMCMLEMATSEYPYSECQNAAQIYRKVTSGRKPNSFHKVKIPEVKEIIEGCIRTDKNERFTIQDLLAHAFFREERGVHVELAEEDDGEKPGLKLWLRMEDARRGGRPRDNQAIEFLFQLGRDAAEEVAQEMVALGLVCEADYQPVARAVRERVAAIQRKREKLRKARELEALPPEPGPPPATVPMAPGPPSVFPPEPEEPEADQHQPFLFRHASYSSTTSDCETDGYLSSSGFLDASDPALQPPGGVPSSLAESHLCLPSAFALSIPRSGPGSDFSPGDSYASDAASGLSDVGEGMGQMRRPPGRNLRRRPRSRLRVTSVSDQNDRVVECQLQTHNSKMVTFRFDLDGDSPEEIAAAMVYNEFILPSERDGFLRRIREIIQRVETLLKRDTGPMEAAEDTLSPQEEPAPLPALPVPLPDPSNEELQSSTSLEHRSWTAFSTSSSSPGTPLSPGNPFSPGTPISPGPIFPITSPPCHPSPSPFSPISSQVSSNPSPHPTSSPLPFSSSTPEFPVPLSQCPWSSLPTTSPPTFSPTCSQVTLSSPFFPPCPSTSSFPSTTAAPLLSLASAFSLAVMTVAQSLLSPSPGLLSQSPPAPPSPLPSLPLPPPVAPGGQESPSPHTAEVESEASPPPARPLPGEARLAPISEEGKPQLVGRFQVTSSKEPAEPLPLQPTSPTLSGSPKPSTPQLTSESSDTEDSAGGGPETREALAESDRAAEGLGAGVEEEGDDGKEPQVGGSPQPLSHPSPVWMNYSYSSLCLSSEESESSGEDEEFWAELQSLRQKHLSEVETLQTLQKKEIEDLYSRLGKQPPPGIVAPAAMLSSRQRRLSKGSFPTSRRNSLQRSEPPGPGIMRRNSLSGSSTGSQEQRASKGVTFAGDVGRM
YANK1, sequence (Q8WU08 whole entry): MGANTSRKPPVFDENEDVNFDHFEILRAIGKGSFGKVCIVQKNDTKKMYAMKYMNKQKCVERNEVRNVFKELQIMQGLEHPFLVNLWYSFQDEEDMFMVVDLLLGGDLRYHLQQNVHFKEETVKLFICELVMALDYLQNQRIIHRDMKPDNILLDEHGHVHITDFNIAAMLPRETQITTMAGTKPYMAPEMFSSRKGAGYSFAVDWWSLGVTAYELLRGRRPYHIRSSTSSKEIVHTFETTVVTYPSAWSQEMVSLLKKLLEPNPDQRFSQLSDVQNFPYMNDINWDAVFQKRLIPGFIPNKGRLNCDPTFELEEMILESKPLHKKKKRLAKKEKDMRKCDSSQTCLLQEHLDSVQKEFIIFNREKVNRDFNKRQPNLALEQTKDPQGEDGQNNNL
T1 sequence (Q9UBF8 whole entry): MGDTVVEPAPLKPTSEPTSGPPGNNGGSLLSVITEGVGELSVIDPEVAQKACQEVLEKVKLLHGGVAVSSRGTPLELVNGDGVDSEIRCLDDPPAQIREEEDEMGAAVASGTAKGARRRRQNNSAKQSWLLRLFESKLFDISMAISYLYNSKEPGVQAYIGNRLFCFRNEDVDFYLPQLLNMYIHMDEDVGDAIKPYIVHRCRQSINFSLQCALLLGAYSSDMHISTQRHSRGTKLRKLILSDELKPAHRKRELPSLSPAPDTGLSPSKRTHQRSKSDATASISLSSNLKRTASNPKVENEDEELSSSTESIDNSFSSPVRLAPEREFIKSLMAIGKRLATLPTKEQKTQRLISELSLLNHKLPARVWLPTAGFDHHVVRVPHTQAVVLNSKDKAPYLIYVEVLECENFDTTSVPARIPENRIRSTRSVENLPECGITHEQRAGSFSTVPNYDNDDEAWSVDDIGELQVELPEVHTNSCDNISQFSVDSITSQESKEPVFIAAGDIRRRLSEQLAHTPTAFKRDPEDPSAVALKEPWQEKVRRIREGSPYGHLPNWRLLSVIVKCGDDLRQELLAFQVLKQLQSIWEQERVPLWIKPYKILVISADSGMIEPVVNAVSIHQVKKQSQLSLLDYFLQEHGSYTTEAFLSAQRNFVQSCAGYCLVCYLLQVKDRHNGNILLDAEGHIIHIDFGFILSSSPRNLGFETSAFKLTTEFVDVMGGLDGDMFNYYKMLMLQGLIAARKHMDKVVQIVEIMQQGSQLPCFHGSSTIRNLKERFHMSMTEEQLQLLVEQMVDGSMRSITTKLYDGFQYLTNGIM
T3 sequence (P51451 whole entry): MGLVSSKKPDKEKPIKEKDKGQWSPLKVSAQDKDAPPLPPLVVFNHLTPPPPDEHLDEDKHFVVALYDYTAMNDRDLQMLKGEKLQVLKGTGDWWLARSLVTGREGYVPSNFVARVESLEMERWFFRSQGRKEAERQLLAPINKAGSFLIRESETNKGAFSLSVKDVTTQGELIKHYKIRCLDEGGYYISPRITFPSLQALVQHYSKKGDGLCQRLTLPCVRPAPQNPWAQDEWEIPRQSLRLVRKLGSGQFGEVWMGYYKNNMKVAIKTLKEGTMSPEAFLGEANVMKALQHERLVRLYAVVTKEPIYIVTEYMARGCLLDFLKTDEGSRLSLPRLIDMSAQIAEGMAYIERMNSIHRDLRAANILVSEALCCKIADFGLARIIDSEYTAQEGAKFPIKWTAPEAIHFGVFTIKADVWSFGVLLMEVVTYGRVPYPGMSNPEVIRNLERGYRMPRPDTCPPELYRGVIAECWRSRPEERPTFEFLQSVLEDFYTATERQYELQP

Compound	remaining binding at 1 µM (YANK1) [%]	remaining binding at 1 µM (PIK4CB) [%]	remaining binding at 1 µM (BMPR2) [%]	remaining binding at 1 µM (BLK) [%]	remaining binding at 1 µM [1] [%]	remaining binding at 1 µM [2] [%]	remaining binding at 1 µM (MKK7) [%]	remaining binding at 1 µM (WNK4) [%]
CNc1c(-c2cnn([C@H]3CCN(C(C)=O)C[C@@H]3F)c2)cnc2[nH]cc(Cl)c12 [Compound 77, 1-((3S,4S)-4-(4-(3-chloro-4-(methylamino)-1H-pyrrolo[2,3-b]pyridin-5-yl)-1H-pyrazol-1-yl)-3-fluoropiperidin-1-yl)ethan-1-one]	100	59	40	100	95	79	67	77
O=C(c1ccc(-c2cnc3[nH]cc(Cl)c3c2NC2CCCC2)cc1)N1CCC(N2CCOCC2)CC1 [Compound 101, (4-(3-chloro-4-(cyclopentylamino)-1H-pyrrolo[2,3-b]pyridin-5-yl)phenyl)(4-morpholinopiperidin-1-yl)methanone]	100	100	98	100	100	100	100	100
CNc1c(-c2ccc(C(=O)N3CCC(N4CCOCC4)CC3)cc2)cnc2[nH]cc(Cl)c12 [Compound 96, (4-(3-chloro-4-(methylamino)-1H-pyrrolo[2,3-b]pyridin-5-yl)phenyl)(4-morpholinopiperidin-1-yl)methanone]	100	58	53	100	100	98	79	84
